Experimental data taken from the supplement of paper PMC4862054.
“And” between values parts separate entries of the source, which are not always exact repeats. Equal values may be shown once.

How the values were obtained:
Settings in all cases: incubation time: 72 h
CAL-85-1 = test: normalised viability (% of control), CellTiter-Blue; higher = more viable cells (about 100 = DMSO control)
Procedure: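 DSRT, CellTiter-Blue viability, 72 h incubation. Signal is normalised to DMSO and benzethonium chloride controls. Value is the normalised response at dose 7.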

HDQ-P1 = test: normalised response (% of control), CellTiter-Glo; higher = more viable cells (100 = DMSO, 0 = benzethonium chloride kill control)
Method in brief: (§1)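 Plates were normalised with 0.1 % DMSO as 100 and a positive kill control as 0. Breast cancer cell lines in 20 µl suspension had been seeded into 384-well plates with compound at 5 concentrations in 10-fold steps over a compound-specific 10,000-fold range, incubated 72 h, and read for CellTox Green fluorescence (485/520 nm) followed by CellTiter-Glo luminescence. Each value is the normalised signal at a single concentration.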

MDA-MB-231 = test: as above
Method in brief: as §1

BT-474 = test: as above
Method in brief: as §1

SMILES	normalised viability (CAL-85-1)	normalised response (HDQ-P1) [%]	normalised response (MDA-MB-231) [%]	normalised response (BT-474) [%]
N#Cc1ccc(COC[C@H]2O[C@@H](n3c(NCc4ccc(Cl)c(Cl)c4)nc4c(N)ncnc43)[C@H](O)[C@@H]2O)cc1 (1000 nM)	88.9%	98.7	89.8	81.8
COc1cc(OC2CCN(C)CC2)ccc1Nc1ncc2c(n1)n(C1CCCC1)c(=O)n2C [AZ 3146] (1000 nM)	108%	98.4	96.7	96.5
CN(C)c1nc(N(C)C)nc(N(C)C)n1 [Altretamine] (1000 nM)	96.9%	105	100	101
O=C(/C=C/c1cccc(S(=O)(=O)Nc2ccccc2)c1)NO [Belinostat] (1000 nM)	42.8%	68.8	36	23.1
O=P1(N(CCCl)CCCl)NCCCO1 (stereo not given) [Cyclophosphamide] (4000 nM)	101%	98	99.5	93.1
C=C1C[C@@H]2[C@H](CC[C@]3(C)C(=O)CC[C@@H]23)[C@@]2(C)C=CC(=O)C=C12 [Exemestane] (1000 nM)	91.7%	99.3	106	103
COc1cc2ncnc(Nc3ccc(F)c(Cl)c3)c2cc1OCCCN1CCOCC1 [Gefitinib] (1000 nM)	54.4% and 47.4%	69	101	101
O=C(Nc1ccncc1)C(=O)c1cn(Cc2ccc(Cl)cc2)c2ccccc12 [Indibulin] (1000 nM)	53.8%	80.1	78	70.8
NC(=O)c1ccc(I)c([N+](=O)[O-])c1 [Iniparib] (1000 nM)	83.3%	97	90	90
CCc1c2c(nc3ccc(OC(=O)N4CCC(N5CCCCC5)CC4)cc13)-c1cc3c(c(=O)n1C2)COC(=O)[C@]3(O)CC [Irinotecan] (1000 nM)	88.7% and 94.5%	95.5	98.1	91
Oc1ccc2c(c1)CC[C@H](c1ccccc1)[C@@H]2c1ccc(OCCN2CCCC2)cc1 [Lasofoxifene] (100 nM)	87.2%	99.4	107	104
Cc1ccc(NC(=O)c2ccc(CN3CCN(C)CC3)cc2)cc1Nc1nc(-c2cccnc2)cs1 [Masitinib] (1000 nM)	94.3%	98.8	105	104
O=C(Nc1cccnc1)N1CCC(Cc2cccc(Oc3ccc(C(F)(F)F)cn3)c2)CC1 [PF-3845] (1000 nM)	83%	98.1	106	99.2
Cc1[nH]c2ccccc2c1CCNCc1ccc(/C=C/C(=O)NO)cc1 [Panobinostat] (100 nM)	15.6%	62.3	10.2	13.4
COCC1(CO)C(=O)C2CCN1CC2 (stereo not given) [Prima-1 Met] (1000 nM)	90.9%	96.3	104	102
CNC(=O)c1cc(Oc2ccc(NC(=O)Nc3ccc(Cl)c(C(F)(F)F)c3)c(F)c2)ccn1 [Regorafenib] (1000 nM)	78.6%	90.9	99	91.8
c1ccc2c(CCNc3ccc(Nc4ccncc4)cc3)c[nH]c2c1 [Serdemetan] (1000 nM)	75.9%	90	82.4	76.4
CN(C)CCOc1ccc(/C(=C(/CCCl)c2ccccc2)c2ccccc2)cc1 [Toremifene] (1000 nM)	99.7%	96.6	92.6	98.7
CC(C)C[C@@H](C(=O)N[C@H](C(=O)OC1CCCC1)c1ccccc1)[C@H](O)C(=O)NO [Tosedostat] (1000 nM)	77%	74.1	59.7	40.6
COCC[n+]1c2c(n(Cc3cnccn3)c1C)C(=O)c1ccccc1C2=O [YM155] (1000 nM)	2.27%	-0.17	-0.22	0.29
